Assay results: patent US8367328B2, “Method for synthesizing DNA” (Takara Bio Inc., priority 1998, dated 2013)

System: Pfu DNA Polymerase I and Pfu DNA Polymerase II
Test: PCR with Pfu DNA Polymerase I plus Pfu DNA Polymerase II in the presence of acidic substances
Type: biochemical, Pyrococcus furiosus
Details: commercially available sodium alginate, 100 to 1000 centipoises; Example 12 conditions
Experimental: Using λDNA as a template, and each of primers λ1 and λ3, primers λ1 and λ4, or primers λ1 and λ5 as a primer pair, the reaction mixture having the following composition was prepared.
Composition of Reaction Mixture: 10 mM Tris-hydrochloric acid (pH 9.2), 75 mM potassium chloride, 6 mM magnesium chloride, 0.4 mM each of dATP, dCTP, dGTP and dTTP, 0.01% BSA, 1.25 U of Pfu DNA Polymerase I and 1.25 U of Pfu DNA Polymerase II, 500 pg of λDNA, and 5 pmol each of the primers, 5 ng or 50 ng of sulfated-fucose-containing polysaccharide-F (a final volume being 25 μl). In addition, as a control, one without addition of sulfated-fucose-containing polysaccharide-F was prepared.
The reaction in 30 cycles was carried out for each of these reaction mixtures, wherein one cycle of reaction comprises a process consisting of 98° C., 0 seconds—68° C., 0 seconds. Thereafter, 5 μl of the resulting reaction mixture was subjected to electrophoresis on 1% agarose gel containing ethidium bromide in an amount of 0.00005%, whereby an amplified fragment was confirmed.
PCR was carried out by using in combination Pfu DNA Polymerase II obtained in Example 1 and Pfu DNA Polymerase I (manufactured by Stratagene), which is α-type DNA polymerase, and sodium alginate, which is an acidic substance.
A reaction mixture comprising λDNA as a template, primers λ1 and λ3 as a primer pair was prepared, and PCR was carried out. […]

## sodium alginate
  Amplification efficiency for DNA synthesis, sodium alginate of each viscosity: completely the same improvements
